Experimental findings from ChEMBL document CHEMBL3526000 (Drug Metab Dispos, 2012) are described below.

Data set [1] concerns the target T1, UDP-glucuronosyltransferase 1A10 (Homo sapiens, UniProt Q9HAW8).
T1 sequence (Q9HAW8 whole entry): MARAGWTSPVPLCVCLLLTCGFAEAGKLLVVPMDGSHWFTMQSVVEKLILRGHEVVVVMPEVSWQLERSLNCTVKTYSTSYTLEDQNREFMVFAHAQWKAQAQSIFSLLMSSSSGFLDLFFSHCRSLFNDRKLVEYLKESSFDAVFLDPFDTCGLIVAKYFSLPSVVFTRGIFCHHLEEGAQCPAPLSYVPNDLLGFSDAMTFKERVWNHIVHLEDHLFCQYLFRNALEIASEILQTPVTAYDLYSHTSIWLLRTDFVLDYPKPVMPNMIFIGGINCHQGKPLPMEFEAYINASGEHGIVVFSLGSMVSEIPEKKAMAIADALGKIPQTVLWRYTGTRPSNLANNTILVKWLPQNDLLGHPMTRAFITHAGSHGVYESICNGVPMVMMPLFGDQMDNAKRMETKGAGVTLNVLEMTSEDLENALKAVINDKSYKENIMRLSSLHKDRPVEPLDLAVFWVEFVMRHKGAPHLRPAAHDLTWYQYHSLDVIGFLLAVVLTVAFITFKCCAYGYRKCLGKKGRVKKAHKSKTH
Kind of data set: Drug metabolism assessed as recombinant human UGT1A10 assessed as N-glucuronidation at 100 uM incubated for 60 mins by LC-MS/MS analysis. It counts as ADME. The following applies: recombinant enzyme, 1 h.

Data set [2] concerns the target T2, UDP-glucuronosyltransferase 1A3 (Homo sapiens, UniProt P35503).
T2 sequence (P35503 whole entry): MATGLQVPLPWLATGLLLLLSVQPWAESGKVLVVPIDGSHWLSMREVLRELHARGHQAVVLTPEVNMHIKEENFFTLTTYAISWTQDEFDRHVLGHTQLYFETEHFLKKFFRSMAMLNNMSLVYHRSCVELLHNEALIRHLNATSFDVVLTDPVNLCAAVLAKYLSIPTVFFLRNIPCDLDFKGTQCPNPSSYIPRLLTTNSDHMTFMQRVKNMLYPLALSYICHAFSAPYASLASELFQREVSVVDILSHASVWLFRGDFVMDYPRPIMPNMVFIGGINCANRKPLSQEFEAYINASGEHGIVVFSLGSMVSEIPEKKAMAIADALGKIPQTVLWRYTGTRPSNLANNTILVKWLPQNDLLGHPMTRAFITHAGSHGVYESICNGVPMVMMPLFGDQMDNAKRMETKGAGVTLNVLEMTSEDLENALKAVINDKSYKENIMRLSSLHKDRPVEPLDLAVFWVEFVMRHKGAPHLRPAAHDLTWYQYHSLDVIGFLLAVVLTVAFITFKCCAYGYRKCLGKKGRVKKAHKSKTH
In words: Drug metabolism assessed as recombinant human UGT1A3 assessed as N-glucuronidation at 100 uM incubated for 60 mins by LC-MS/MS analysis. It counts as ADME. The following applies: recombinant enzyme, 1 h.

Data set [3] has as its target T3, UDP-glucuronosyltransferase 1A6 (Homo sapiens, UniProt P19224).
T3 sequence (P19224 whole entry): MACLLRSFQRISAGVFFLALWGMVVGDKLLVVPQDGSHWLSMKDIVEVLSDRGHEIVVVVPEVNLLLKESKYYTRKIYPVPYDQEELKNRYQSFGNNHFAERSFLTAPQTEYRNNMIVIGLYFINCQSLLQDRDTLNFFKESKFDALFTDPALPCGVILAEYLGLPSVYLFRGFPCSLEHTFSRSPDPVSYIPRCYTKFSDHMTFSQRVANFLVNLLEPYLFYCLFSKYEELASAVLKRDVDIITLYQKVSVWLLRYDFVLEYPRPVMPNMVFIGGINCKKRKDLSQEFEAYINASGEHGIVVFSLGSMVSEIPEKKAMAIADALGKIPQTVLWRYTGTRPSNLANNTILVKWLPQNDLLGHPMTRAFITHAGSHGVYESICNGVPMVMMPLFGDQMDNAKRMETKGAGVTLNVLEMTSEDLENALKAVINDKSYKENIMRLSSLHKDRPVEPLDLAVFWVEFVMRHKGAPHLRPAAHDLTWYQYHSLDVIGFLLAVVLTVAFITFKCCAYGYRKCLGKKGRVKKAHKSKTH
In words: Drug metabolism assessed as recombinant human UGT1A6 assessed as O-glucuronidation at 100 uM incubated for 60 mins by LC-MS/MS analysis. The following applies: recombinant enzyme, 1 h. It counts as ADME.

The next data set has as its target T4, UGT2B7 (Homo sapiens, UniProt P16662).
T4 sequence (P16662 whole entry): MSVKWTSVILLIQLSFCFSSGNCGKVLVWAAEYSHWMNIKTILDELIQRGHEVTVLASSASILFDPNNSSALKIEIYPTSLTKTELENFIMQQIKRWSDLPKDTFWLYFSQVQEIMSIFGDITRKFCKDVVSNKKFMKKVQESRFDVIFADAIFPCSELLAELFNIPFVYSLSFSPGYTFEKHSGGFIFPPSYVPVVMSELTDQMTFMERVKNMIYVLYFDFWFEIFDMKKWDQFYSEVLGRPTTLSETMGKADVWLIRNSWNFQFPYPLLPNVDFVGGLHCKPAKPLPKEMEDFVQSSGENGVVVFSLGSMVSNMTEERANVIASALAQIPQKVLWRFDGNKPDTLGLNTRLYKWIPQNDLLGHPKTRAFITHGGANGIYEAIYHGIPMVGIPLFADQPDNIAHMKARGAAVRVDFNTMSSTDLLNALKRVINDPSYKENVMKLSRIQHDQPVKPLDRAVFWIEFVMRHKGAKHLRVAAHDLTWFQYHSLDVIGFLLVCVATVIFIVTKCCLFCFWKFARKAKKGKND
In words: Drug metabolism assessed as recombinant human UGT2B7 assessed as O-glucuronidation at 10 to 400 uM incubated for 60 mins by LC-MS/MS analysis.

Data set [4] deals with T5, UDP-glucuronosyltransferase 1A1 (Homo sapiens, UniProt P22309).
T5 sequence (P22309 whole entry): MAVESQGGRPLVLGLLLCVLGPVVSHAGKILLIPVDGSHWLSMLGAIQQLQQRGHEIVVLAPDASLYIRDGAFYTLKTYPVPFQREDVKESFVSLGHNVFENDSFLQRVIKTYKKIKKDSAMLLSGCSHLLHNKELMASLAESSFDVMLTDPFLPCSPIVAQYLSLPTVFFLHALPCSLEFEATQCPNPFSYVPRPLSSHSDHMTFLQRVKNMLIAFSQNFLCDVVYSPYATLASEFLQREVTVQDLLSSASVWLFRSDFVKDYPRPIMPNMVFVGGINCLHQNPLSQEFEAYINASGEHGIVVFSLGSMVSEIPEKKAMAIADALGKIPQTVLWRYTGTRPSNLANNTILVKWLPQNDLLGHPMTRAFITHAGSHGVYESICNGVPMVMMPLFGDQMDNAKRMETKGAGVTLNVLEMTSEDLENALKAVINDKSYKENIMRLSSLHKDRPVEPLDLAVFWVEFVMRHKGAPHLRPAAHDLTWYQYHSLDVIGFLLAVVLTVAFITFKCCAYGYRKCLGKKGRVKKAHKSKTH
In words: Drug metabolism assessed as recombinant human UGT1A1 assessed as O-glucuronidation at 100 uM incubated for 60 mins by LC-MS/MS analysis. It counts as ADME. The following applies: recombinant enzyme, 1 h.

Data set [5] deals with T5, UDP-glucuronosyltransferase 1A1. Kind of data set: Drug metabolism assessed as recombinant human UGT1A1 assessed as N-glucuronidation at 100 uM incubated for 60 mins by LC-MS/MS analysis. In kind it is ADME. The following applies: recombinant enzyme, 1 h.

SMILES strings stand for the structures.

Usually Km stands for the substrate concentration at which the rate is half of its maximum. Regarding `O=C(CCCN1CCC(O)(c2ccc(Cl)cc2)CC1)c1ccc(F)cc1` [HALOPERIDOL], the Drug metabolism result in data set [1], in data set [2], in data set [3], in data set [4] and in data set [5] was “metabolite_not_detected” throughout. Also, the Km at 1 h, 400 µM at UGT2B7 is 45 µM.
